# From patent US20100119599A1 (ARCHER PHARMACEUTICALS, INC., priority 2006, published 2010)
# What was measured:
# [1] = test system: Aβ1-40; test: Measurement of Aβ1-40 in culture medium of 7W WT APP751 CHO cells by ELISA; format: cell-based, Chinese hamster; conditions: for activity at 5 µM: Cricetulus griseus, Table 1, 5 μM test compound, CHO cells stably transfected with human APP751, culture medium, ELISA, control DMSO, 0 = no detectable amount; for Aβ1-40 (% of control): CHO cells that overexpress APP751, zero = below the detection limit of the assay
# Protocol: (§1) Chinese hamster ovary (CHO) cells, stably transfected with human APP751 (7W WT APP751 CHO cells) were used. See, e.g., Koo and Squazzo, J. Biol. Chem., 269(26): 17386-17389, 1994. The cells were maintained in DMEM medium supplemented with 10% fetal bovine serum and 1× mixture of penicillin/streptomycin/fungizone/glutamine mixture (Cambrex, Md.) geneticin as selecting agent in 75 cm^2 cell culture flasks. The 7W WT APP751 CHO cells were plated in 96-well cell culture plates in quadruplicate, containing 200 microliters of culture medium, for 18 hours at 37° C. and 5% CO2. All test compounds were placed in dimethyl sulfoxide (DMSO) before being added to the cultured confluent 7W WT APP751 CHO cells to a concentration of the test compound of 5 μM. The culture medium was collected and diluted before being assayed by ELISAs for Aβ1-40 at 10-fold dilution and Aβ1-42 at 2-fold dilution, respectively. Concentrations of Aβ1-40 and Aβ1-42, expressed in pg/ml, were determined using commercially available ELISAs (Biosource, Calif.) in a colorimetric assay using labeled antibodies detected spectrophotometrically. For compounds with an identification beginning “RI”, the compounds were tested at a concentration of 10 μM for 24 hours. Control cells were treated with DMSO containing no compound. The percentage reduction in levels of Aβ1-40 and Aβ1-42 as compared to control cells not exposed to the test compounds are reported for the compounds in Tables 1, 2, and 3, supra. An entry of “0” indicates no detectable amount of Aβ1-40 or Aβ1-42 according to the assay conditions. The data in Tables 1, 2, and 3 may be rounded to the nearest 0.1%.
# [2] = test system: Aβ1-42; test: Measurement of Aβ1-42 in culture medium of 7W WT APP751 CHO cells by ELISA; format: cell-based, Chinese hamster; conditions: for activity at 5 µM: Cricetulus griseus, Table 1, 5 μM test compound, CHO cells stably transfected with human APP751, culture medium, ELISA, control DMSO, 0 = no detectable amount, read-out: Aβ1-42 (% of control); for Aβ1-42 (% of control): CHO cells that overexpress APP751, zero = below the detection limit of the assay
# Protocol: as §1
# 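Also: 5 µM test compound but RI-coded compounds at 10 µM for 24 hours.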
Compound,activity at 5 µM [1],activity at 5 µM [2],Aβ1-40 (% of control) [1],Aβ1-42 (% of control) [2]
"COc1ccc(C2C(C(=O)OCc3ccccc3)=C(C)NC3=C2C(=O)CCC3)cc1OC (stereo not shown) [ST013138, phenylmethyl 4-(3,4-dimethoxyphenyl)-2-methyl-5-oxo-1,4,6,7,8-pentahydroquinoline-3-carboxylate]",69.7%,56.8%,,
"COc1ccc(C2CC(=O)C3=C(C2)NC(C)=C(C(=O)OCc2ccccc2)C3c2cc(OC)c(OC)c(OC)c2)cc1 (stereo not shown) [ST017244, phenylmethyl 7-(4-methoxyphenyl)-2-methyl-5-oxo-4-(3,4,5-trimethoxyphenyl)-1,4,6,7,8-pentahydroquinoline-3-carboxylate]",65.4%,24.4%,,
CCCCCCNC(=O)CSC1=C(C#N)C(c2ccccc2)C(C(=O)Nc2ccc(Cl)cc2)=C(C)N1 (stereo not shown) [RI_35],,,55.4 % of control,78.6 % of control
"CC1=C(C(=O)OCc2ccccc2)C(c2ccccc2I)C2=C(CC(C)(C)CC2=O)N1 (stereo not shown) [ST216858, phenylmethyl 4-(2-iodophenyl)-2,7,7-trimethyl-5-oxo-1,4,6,7,8-pentahydroquinoline-3-carboxylate]",30.1%,61.5%,,
"CCCCOC(=O)C1=C(C)NC2=C(C(=O)CC(C)(C)C2)C1c1cc2c(cc1[N+](=O)[O-])OCO2 (stereo not shown) [ST216053, butyl 2,7,7-trimethyl-4-(6-nitro(2H-benzo[d]1,3-dioxolen-5-yl))-5-oxo-1,4,6,7,8-pentahydroquinoline-3-carboxylate]",22.2%,6.37%,,
"COC(=O)C1=C(C)NC(C)=C(C(=O)OC)C1c1cc(-c2ccc(Cl)cc2Cl)co1 [ST045410, methyl 4-[4-(2,4-dichlorophenyl)(2-furyl)]-5-(methoxycarbonyl)-2,6-dimethyl-1,4-dihydropyridine-3-carboxylate]",,,75.13 % of control,69.44 % of control
"COc1ccccc1NC(=O)C1=C(C)NC2=C(C(=O)CCC2)C1c1ccc(Cl)cc1 (stereo not shown) [ST052292, [4-(4-chlorophenyl)-2-methyl-5-oxo(3-1,4,6,7,8-pentahydroquinolyl)]-N-(2-methoxyphenyl)carboxamide]",85.8%,68.2%,,
N#CC1=C(N)NC(SCC(N)=O)=C(C#N)C1c1cccs1 (stereo not shown) [RI_4],,,92.2 % of control,64.7 % of control
"CCCCOc1ccccc1C1C(C(=O)OCCc2ccccc2)=C(C)NC2=C1C(=O)CC(C)(C)C2 (stereo not shown) [ST014907, 2-phenylethyl 4-(2-butoxyphenyl)-2,7,7-trimethyl-5-oxo-1,4,6,7,8-pentahydroquinoline-3-carboxylate]",34.6%,83.5%,,
CC1=C(C(=O)Nc2ccccc2)C(c2ccsc2)C(C#N)=C(SCC(=O)Nc2ccc(Cl)cc2)N1 (stereo not shown) [RI_75],,,27.3 % of control,38.6 % of control
CCC(C)c1ccccc1NC(=O)CSC1=C(C#N)C(c2ccsc2)C(C(=O)Nc2ccccc2)=C(C)N1 (stereo not shown) [RI_68],,,74.6 % of control,100 % of control
"CC1=C(C(=O)OCc2ccccc2)C(c2ccccc2Br)C2=C(CC(C)(C)CC2=O)N1 (stereo not shown) [ST216854, phenylmethyl 4-(2-bromophenyl)-2,7,7-trimethyl-5-oxo-1,4,6,7,8-pentahydroquinoline-3-carboxylate]",29.4%,60%,,
"CCOC(=O)C1=C(C)NC(C)=C(C(=O)OC)C1c1ccc(Br)cc1 (stereo not shown) [ST063245, ethyl 4-(4-bromophenyl)-5-(methoxycarbonyl)-2,6-dimethyl-1,4-dihydropyridine-3-carboxylate]",,,8.423 % of control,0 % of control
CC1=C(C(=O)Nc2ccccc2)C(c2ccsc2)C(C#N)=C(SCC(=O)Nc2ccc(C)cc2)N1 (stereo not shown) [RI_49],,,40.9 % of control,37.7 % of control
"N#CC1=C(N)Nc2c(c(=O)oc3ccccc23)C1c1ccc(Br)cc1 (stereo not shown) [ST014147, 2-amino-4-(4-bromophenyl)-5-oxo-1,4-dihydrochromeno[4,3-b]pyridine-3-carbonitrile]",,,82.09 % of control,68.55 % of control
"COC(=O)C1=C(C)NC2=C(C(=O)CC(C)(C)C2)C1c1cccnc1 (stereo not shown) [ST013059, methyl 2,7,7-trimethyl-5-oxo-4-(3-pyridyl)-1,4,6,7,8-pentahydroquinoline-3-carboxylate]",26.7%,76.1%,,
"CCc1ccc(C2C(C(=O)OC3CCCCC3)=C(C)NC3=C2C(=O)CC(c2ccccc2)C3)cc1 (stereo not shown) [ST013389, cyclohexyl 4-(4-ethylphenyl)-2-methyl-5-oxo-7-phenyl-1,4,6,7,8-pentahydroquinoline-3-carboxylate]",37.4%,94.4%,,
"COc1cc(C2C(C(=O)OCc3ccccc3)=C(C)NC3=C2C(=O)CCC3)cc(Br)c1O (stereo not shown) [ST013249, phenylmethyl 4-(3-bromo-4-hydroxy-5-methoxyphenyl)-2-methyl-5-oxo-1,4,6,7,8-pentahydroquinoline-3-carboxylate]",0%,68%,,
"N#CC1=C(N)n2c(s/c(=C\c3ccc(O)cc3)c2=O)=C(C#N)C1c1ccc(O)cc1 (stereo not shown) [ST025034, 5-amino-7-(4-hydroxyphenyl)-2-[(4-hydroxyphenyl)methylene]-3-oxo-4,7-dihydro-1,3-thiazolidino[3,2-a]pyridine-6,8-dicarbonitrile]",,,69.9 % of control,85.11 % of control
CC1=C(C(=O)Nc2ccc(Cl)cc2)C(c2ccccc2)C(C#N)=C(SCC(=O)Nc2ccccc2C)N1 (stereo not shown) [RI_40],,,25.7 % of control,43.2 % of control
"CCOC(=O)C1=C(C)NC(C)=C(C(=O)OC)C1c1cc(Cl)cc(Cl)c1OC (stereo not shown) [ST211424, methyl 4-(3,5-dichloro-2-methoxyphenyl)-5-(ethoxycarbonyl)-2,6-dimethyl-1,4-dihydropyridine-3-carboxylate]",,,62.46 % of control,91.29 % of control
"Cc1ccc(/C=c2/sc3n(c2=O)C(N)=C(C#N)C(c2ccc(C)cc2)C=3C#N)cc1 (stereo not shown) [ST215709, 5-amino-7-(4-methylphenyl)-2-[(4-methylphenyl)methylene]-3-oxo-4,7-dihydro-1,3-thiazolidino[3,2-a]pyridine-6,8-dicarbonitrile]",,,55.91 % of control,78.43 % of control
CC1=C(C(=O)Nc2ccc(Cl)cc2)C(c2ccsc2)C(C#N)=C(SCC(=O)Nc2cccc(Cl)c2C)N1 (stereo not shown) [RI_53],,,56 % of control,99.2 % of control
"CC1=C(C(=O)OCC(C)C)C(c2ccc(OCc3ccccc3)cc2)C2=C(CCCC2=O)N1 (stereo not shown) [ST017342, 2-methylpropyl 2-methyl-5-oxo-4-[4-(phenylmethoxy)phenyl]-1,4,6,7,8-pentahydroquinoline-3-carboxylate]",28.8%,93.5%,,
"CC1=C(C(=O)OCc2ccccc2)C(c2ccccc2)C2=C(CC(C)(C)CC2=O)N1 (stereo not shown) [ST013215, phenylmethyl 2,7,7-trimethyl-5-oxo-4-phenyl-1,4,6,7,8-pentahydroquinoline-3-carboxylate]",0%,88.6%,,
"CCN(CC)c1ccc(C2C(C(=O)OC)=C(C)NC3=C2C(=O)CC(c2ccccc2Cl)C3)cc1 (stereo not shown) [ST015182, methyl 4-[4-(diethylamino)phenyl]-7-(2-chlorophenyl)-2-methyl-5-oxo-1,4,6,7,8-pentahydroquinoline-3-carboxylate]",39.9%,61.4%,,
"COC(=O)C1=CN(C23CC4CC(CC(C4)C2)C3)C=C(C(=O)OC)C1c1cccc([N+](=O)[O-])c1 [ST045329, methyl 1-adamantanyl-5-(methoxycarbonyl)-4-(3-nitrophenyl)-1,4-dihydropyridine-3-carboxylate]",,,82.6 % of control,68.52 % of control
"CCC(C)OC(=O)C1=C(C)NC2=C(C(=O)CC(c3ccccc3)C2)C1c1ccc(Cl)c(Cl)c1 (stereo not shown) [ST017319, methylpropyl 4-(3,4-dichlorophenyl)-2-methyl-5-oxo-7-phenyl-1,4,6,7,8-pentahydroquinoline-3-carboxylate]",26.8%,97.5%,,
"CCOC(=O)C1=C(C)NC2=C(C(=O)CCC2)C1c1ccccc1OCc1ccccc1 (stereo not shown) [ST013216, ethyl 2-methyl-5-oxo-4-[2-(phenylmethoxy)phenyl]-1,4,6,7,8-pentahydroquinoline-3-carboxylate]",0%,88.8%,,
